Data as given in patent publication US20220351803A1, “Predicting The Response Of A Microbiota To Dietary Fibers” (MYOTA GMBH, priority 2019, published 2022).

Experiments:
stool microbiota [1] = assay: Ex vivo stool slurry incubation, SCFA production by GC-FID; parameters: species or system human
Description: (§1) Fresh stool samples were collected and weighed before being transferred to anaerobic conditions, in which they were diluted in reduced PBS containing 0.1% L-Cysteine to a ratio of 1 g/5 ml. Samples were homogenized into a slurry before being aliquoted into 96-well plates. Samples of the unaltered slurry were taken for a baseline sample, after which inulin, pectin, and cellulose were added from stock solutions to final slurry concentrations of 10 g/L, 5 g/L and 20 g/L, respectively. Concentrations of inulin and pectin were determined based on the maximum stock concentration we were able to obtain in which the dietary fiber was fully dissolved. Four conditions were measured: inulin, pectin, cellulose and control (no spike-in). The samples were incubated anaerobically at 37° C., and two biological replicates (two different wells in the 96-well plates) were collected at each time point. Samples were collected after 2 and 4 hours from all participants and sent out for SCFA quantification on a GC-FID. Linear production rate was measured between 2 h and 4 h because this allowed Applicants maximum accuracy in measuring the time interval without introducing artefacts due to delays between conditions introduced during setup. Results obtained from slurry in large flasks on a shaker were in good agreement with data obtained in a 96-well plate format.
Chromatographic analysis was carried out using an Agilent 7890B system with a flame ionization detector (FID) (Agilent Technologies, Santa Clara, Calif.). A high resolution gas chromatography capillary column 30 m×0.25 mm coated with 0.25 μm film thickness was used (DB-FFAP) for the volatile acids (Agilent Technologies) and a high resolution gas chromatography capillary column 30 m×0.25 mm coated with 0.50 μm film thickness was used (DB-FFAP) for the nonvolatile acids. Nitrogen was used as the carrier gas. […]
The samples were kept frozen at −80° C. until analysis. […] A sample of the raw fecal material was transferred to a 2 mL tube, the weight of the fecal material was determined and 1.5 mL of HPLC water was added to each sample. […]

CaCo cell monolayers = assay: Gut monolayer SCFA absorption measurements (Transwell, apical/basal sampling over 24 h); assay type: in vitro ADME; conditions: CaCo monolayer-derived rate constant
Description: Applicants used a gut monolayer system without the immune component, the Gut monolayer was prepared as previously described by WLK Chen et al. (Chen et al., 2017b) Briefly Caco-2 or C2BBe1 along with HT29-MTX-E21 cells (Sigma) were seeded onto rat tail collagen I-(corning 354236) coated Transwell inserts (Corning 3460) in a 9:1 ratio (1×10^5 cells/cm2) in 500 μl seeding medium. The top and bottom compartments of the Transwell Plate were fed with 500 ul and 1.5 ml of seeding medium. The medium was changed every 2-3 days. After 20 days of gut insert maturation, the cell monolayer was ready to use.
Barrier integrity was quantified by TEER (TransEpithelial Electrical Resistance) using the EVOM2 and the Enfohm-12 (World Precision Instruments) at 37° C. Applicants measured cell monolayer integrity at the beginning and the end of the 24 h long experiment. […]
Gut luminal concentrations of microbially-derived SCFAs is a balance between net production in the lumen and absorption by the host epithelium. Unfortunately, quantitative understanding of the rate of absorption of a given SCFA by cells in the gut epithelia is limited. […] Applicants sought to estimate the order of magnitude of this rate constant, to better understand the fate of SCFAs produced by the microbiota in the colon (i.e. the balance between quantities absorbed versus quantities excreted). […]

[2] = dialysis bag constant; cited from earlier work
stool microbiota [3] = assay: Ex vivo stool slurry incubation, inulin depletion by inulin-specific ELISA; parameters: species or system human
Description: as §1
Applicants use BioPAL's inulin immunoassay kit (BioPAL Worcester Mass.) to measure inulin concentration in filtrate from stool samples and follow manufacture's protocol. […]
To measure SCFA production ex vivo in response to different dietary polysaccharides, stool from 40 healthy human participants was homogenized into a slurry in anaerobic conditions and spiked with inulin, pectin or cellulose (cf. Methods). The slurry was then allowed to evolve over time and samples obtained at regular intervals in order to quantify SCFA content at each timepoint (FIG. 1). In order to determine the appropriate sampling frequency, Applicants performed pilot experiments in which Applicants analysed the trajectory of each SCFA concentration over a 24 h period. […]

pectin
butyrate concentration over 24 h (stool microbiota [1]; participant G): produces it from pectin as well

cellulose
SCFA production rates versus control (no spike-in) (stool microbiota [1]; 20 g/L cellulose, timepoints 2 h and 4 h): indistinguishable from control

CCCC(=O)[O-].[Na+] [butyrate, Sodium Butyrate]
absorption rate constant of butyrate (CaCo cell monolayers): 0.091 mmol L-1h-1cm-2
absorption rate constant of butyrate [2]: 0.0019 mmol L-1h-1cm-2

inulin
inulin substrate in slurry after 4 h (stool microbiota [3]; 10 g/L inulin, 4 h): a significant fraction of inulin substrate remained
inulin substrate in slurry by 24 h (stool microbiota [3]; 10 g/L inulin, 24 h, five of the six participants tested): almost entirely consumed
time for the majority of inulin to be fermented by the microbiota ex vivo (stool microbiota [3]; input concentration 10 g/L, most participants): 12 to 24 h
butyrate concentration over 24 h (stool microbiota [1]; participant C): only produces butyrate from inulin
